Results from patent US20250090510A1, “eIF4G1-eIF1 INHIBITORS AND USE THEREOF” (YEDA RESEARCH AND DEVELOPMENT CO. LTD., priority 2022, published 2025).

How the values were obtained:
[1] = system: parental NIH3T3 cells; experiment: Polysome profiling and real-time PCR in parental cells; type: cell-based, mouse; conditions: i14G1-10 30 μM, i14G1-12 15 μM, 3 h
[2] = system: HEK293T cells; experiment: Ribo-seq and TI-seq translation efficiency analysis; type: cell-based, human; conditions: i14G1-10 20 μM, i14G1-12 10 μM; 3 h
Description: FIGS. 4A-L: The effect eIF1-eIF4G1 inhibition by i14G1-10 or i14G1-12 on global translation is linked to start codon stringency. (4A) HEK293T cells were treated with DMSO, i14G1-10 (20 μM), and […] (10 μM) for 3 h and then ribosome foot printing libraries were prepared, sequenced and analyzed as described in the scheme. The presented graphs show meta-gene analysis of the distribution of normalized reads in the coding region (CDS) and 5′UTR of all analyzed genes in DMSO (black), i14G1-10 (blue), and i14G1-12 (red). (4B) Summary of the number of genes whose ribosomal occupancy was affected (fold change, […]) or unaffected in coding regions (CDS) (left) and 5′UTR (right) in i14G1-10 or i14G1-12 samples. […] (4E) Analysis of the nucleotide context of the annotated start codon of i14G1-10 and i14G1-12 differentially translated mRNAs using the STREME motif discovery algorithm. (4F) The translation efficiency of eIF1 in DMSO, i14G1-10 and i14G1-12 samples calculated from the Ribo-seq data. The weak AUG context of eIF1 is shown above. […] (4I) HEK293T cells were transfected with a firefly luciferase reporter gene driven by either by AUG or near cognate start codon, i.e., ACG, CUG, GUG, and UUG. The Renilla luciferase reporter gene was also co-transfected and served as a normalizing control. The near cognate start codon activities in DMSO control and i14G1-10 and i14G1-12 treated cells are presented as a percentage of AUG activity. The data are shown as mean±SEM, n=5. the asterisks denote statistically significant difference compared to DMSO, according to Student's t-tests (one-tailed, paired). *p<0.05; **p<0.01. (4J) Scatter plots showing the translation efficiencies correlations (R2 >0.9) of all analyzed genes between the two independent replicate experiments with DMSO (vehicle control) (top), i14G1-10 (middle), and i14G1-12 (bottom). (4K) Scatter plots showing the translation efficiencies correlations between 5′UTR and CDS (Pearson's r >0.5) of all analyzed genes of two independent replicate experiments with i14G1-10 (left) and i14G1-12 (right).
Ribo-seq and TI-seq. HEK293T cells were grown in 10 cm culture dish until 80% confluence, and treated with DMSO, i14G1-10 ([…]), and i14G1-12 (10 μM). After 3 h, for TI-seq, cells were treated with 2 μg/ml harringtonine (Hrr) for 2 minutes followed by the addition of 100 μg/ml cycloheximide (CHX) for 5 minutes. For Ribo-seq cells were treated with 100 μg/ml cycloheximide (CHX) for 5 minutes. Thereafter, cells were lysed in polysome buffer. For both TI-seq and Ribo-seq, ribosome fractions were isolated using sucrose density centrifugation followed by Rnase I digestion. The total RNA was isolated using tri-reagent and used for high-throughput library preparation as described (Ingolia et al. 2012). The libraries were sequenced on the HiSeq2500 High-Output instrument (Illumina) for SR-60.
RNA-seq libraries. Total RNA was isolated from the lysates used for TI-seq and Ribo-seq, using Bio Tri RNA reagent. Total RNA was then cleaned up using Oligo d(T)25 Magnetic Beads (NEB 514195) to isolate mRNA. RNA-seq libraries prepared using a derivation of MARS-seq, produce expression libraries with two replicates of each treatment. ˜25 ng RNA was taken for first Reverse transcription reaction using Illumina barcoded RT1 primer. Resultant barcoded cDNA samples were subsequently pooled according to Ct values of Housekeeping gene (GAPDH) (Quality control 1). Pooled cDNA was treated with Exonuclease I to remove excess primers followed by Second strand synthesis using NEB SSS module enzyme mix. After that, in vitro transcription was performed using NEB T7 RNA Pol mix to generate RNA which was fragmented and ligated to an adaptor consisting RD2 using T4 RNA ligase I (NEB) followed by a second Reverse transcription reaction. The library was amplified using Kappa Hifi ready mix. The RNA libraries were sequenced using a high-throughput 75 bp kit (Illumina FC404-2005) on NEXTseq 500 sequencer. […]

SMILES | overall translation, polysome to monosome ratio (P/M) [1] | translation of ISR genes in polysome fractions [1] | ATF4 main ORF translation [2] | number of genes with translational downregulation of CDS (≥1.7 fold) [2] [genes] | number of genes with translational upregulation of CDS [2] [genes] | number of genes with upregulated 5′UTR translation [2] [genes] | translation efficiency of endogenous eIF1 [2]
O=C(/C=C/Sc1ccc(C(F)(F)F)cn1)c1ccccc1 [i14G1-10] | significant reduction in translation efficiency | upregulated | upregulated | 320 | 255 | 806 | upregulated
Cn1ccnc1S/C(=C/C=C(C#N)C#N)c1ccc(Cl)cc1 [i14G1-12] | significant reduction in translation efficiency | upregulated | upregulated | 874 | 547 | 1207 | upregulated
